# Measurements: KR20170021349A, “다양한 질병의 치료를 위한 jnk 신호 전달 경로의 세포 투과성 펩타이드 억제자의 새로운 용도” (자이겐 인플라메이션 리미티드, priority 2014, dated 2017)
# Key:
# [1] = Phase II trial, post-surgery intraocular inflammation, vs dexamethasone eye drops; type: in vivo, human
# [2] = Distribution of C14-labelled peptide, 72 h after s.c., i.v., i.p.; type: in vivo, mouse; conditions: 1 mg/kg, Fig. 25
# Jurkat cells = assay: PMA & ionomycin-induced cytokine production; type: cell-based; conditions: Fig. 27 D-F
# hAPP Tg mice = assay: hAPP transgenic mouse model of Alzheimer's disease; type: in vivo
# [3] = system: Varicella Zoster Virus (VZV); assay: VZV-BAC-Luc replication (luciferase) in HFFs; type: cell-based; conditions: 24 h
# [4] = system: female Sprague-Dawley rats; assay: Cystometry in conscious rats with CYP-induced cystitis; type: in vivo, rat; conditions: 2 mg/kg i.v.; 30-60 min post-dose; P<0.01
# [5] = system: endogenous JNK in HepG2 cells; assay: AlphaScreen kinase assay of endogenous IL-1-induced JNK activity; type: cell-based; conditions: IL-1-dependent JNK activity, Fig. 3d
# [6] = system: Hep G2 tumours in SWISS nude mice; assay: Orthotopic Hep G2 human liver carcinoma, 1 mg/kg; type: in vivo, mouse
substance,measurement,setting,value
NH2-DQSRPVQPFLNLTTPRKPRPPRRRQRRKKRG-COOH (H-DQSRPVQPFLNLTTPRKPRPPRRRQRRKKRG-OH; also: D-amino acids (positions not given here)) [XG-102],"AEs leading to interruption of study treatment, events (%)",[1]; 90 μg,11 (14.1%)
same,"mild AEs, number of events (% of reported events)",[1]; 90 μg,55 (70.5%)
same,"moderate AEs, number of events (%)",[1]; 90 μg,6 (7.7%)
same,patients with an AE within 24 h of administration,[1]; 90 μg,34%
same,patients with intraocular pressure increased,[1]; 90 μg,23%
same,"severe AEs, number of events (%)",[1]; 90 μg,17 (21.7%)
same,"SOC eye disorders, patients","[1]; 90 μg (26 patients), p=0.025 vs dexamethasone",55%
same,"premature withdrawal of study eye drops, patients (%)",[1]; 90 μg (N=47),10 (21.3%)
same,overall tolerability,[1]; 90 μg and 900 μg,내약성이 우수하였다
same,"anterior chamber cell grade vs dexamethasone, days 7 and 14","[1]; 90 μg and 900 μg, FAS",통계적으로 현저한 차이가 없었다
same,"anterior chamber flare grade vs dexamethasone, days 7, 14, 28","[1]; 90 μg and 900 μg, FAS",통계적으로 현저한 차이가 없었다
same,"difference in anterior chamber cell grade vs dexamethasone, day 28","[1]; 90 μg single subconj. inj., PP, 95% CI -0.214-0.385, p=0.003",0.086
same,patients with an adverse event,"[1]; 90 μg, 31/47",66%
same,"difference in anterior chamber cell grade vs dexamethasone, day 28","[1]; 90 μg, FAS, 95% CI -0.215-0.321, p<0.001",0.053
same,odds of cleared ocular inflammation vs usual treatment group,"[1]; 90 μg, FAS, day 7",0.52
same,odds of cleared ocular inflammation vs usual treatment group,"[1]; 90 μg, FAS, day 14",0.85
same,odds of cleared ocular inflammation vs usual treatment group,"[1]; 90 μg, FAS, day 28",1.24
same,odds of cleared ocular inflammation vs usual treatment group,"[1]; 90 μg, PP, day 7",0.56
same,odds of cleared ocular inflammation vs usual treatment group,"[1]; 90 μg, PP, day 14",0.97
same,odds of cleared ocular inflammation vs usual treatment group,"[1]; 90 μg, PP, day 28",1.45
same,patients with rescue medication introduced,"[1]; 90 μg, p=0.013 vs dexamethasone",21.3%
same,"AEs leading to interruption of study treatment, events (%)",[1]; 900 μg,8 (11.6%)
same,"mild AEs, number of events (%)",[1]; 900 μg,49 (71.0%)
same,"moderate AEs, number of events (%)",[1]; 900 μg,12 (17.4%)
same,patients with an AE within 24 h of administration,[1]; 900 μg,27%
same,patients with intraocular pressure increased,[1]; 900 μg,10%
same,"severe AEs, number of events (%)",[1]; 900 μg,8 (11.6%)
same,"SOC eye disorders, patients",[1]; 900 μg (24 patients),50%
same,"premature withdrawal of study eye drops, patients (%)",[1]; 900 μg (N=48),8 (16.7%)
same,"difference in anterior chamber cell grade vs dexamethasone, day 28","[1]; 900 μg single subconj. inj., PP, 95% CI -0.350-0.242, non-inferior p<0.001",-0.054
same,patients with an adverse event,"[1]; 900 μg, 32/48",67%
same,"difference in anterior chamber cell grade vs dexamethasone, day 28","[1]; 900 μg, FAS, 95% CI -0.301-0.238, p<0.001",-0.032
same,odds of cleared ocular inflammation vs usual treatment group,"[1]; 900 μg, FAS, day 7",0.76
same,odds of cleared ocular inflammation vs usual treatment group,"[1]; 900 μg, FAS, day 14",1.25
same,odds of cleared ocular inflammation vs usual treatment group,"[1]; 900 μg, FAS, day 28",1.13
same,odds of cleared ocular inflammation vs usual treatment group,"[1]; 900 μg, PP, day 7",0.84
same,odds of cleared ocular inflammation vs usual treatment group,"[1]; 900 μg, PP, day 14",1.12
same,odds of cleared ocular inflammation vs usual treatment group,"[1]; 900 μg, PP, day 28",1.26
same,patients with rescue medication introduced,"[1]; 900 μg, not significant vs dexamethasone",14.6%
same,tissue accumulation,[2],"간, 비장 및 골수 대부분에서 XG-102 펩타이드의 축적"
same,"PMA & ionomycin-induced IFNg, IL-6, IL-2 production",Jurkat cells,사이토카인 방출을 억제한다
same,spatial learning in Morris Water Maze,"hAPP Tg mice; 0.1 mg/kg every 2 wk or 10 mg/kg every 3 wk s.c., 4 months",크게 영향을 받지 않았다
same,"brain Aβ1-42 level, Triton X-100 fraction","hAPP Tg mice; 0.1 mg/kg, p<0.05 vs vehicle",현저한 감소를 나타내었다
same,cortical 6E10 IR plaque load,hAPP Tg mice; 10 mg/kg vs vehicle,비히클에 비해 증가하였으나
same,brain homogenate Aβ1-40 levels,"hAPP Tg mice; ELISA, 4 fractions",영향을 미치지 않았다
same,CSF Aβ1-40 and Aβ1-42 levels,"hAPP Tg mice; p<0.01 at 10 mg/kg, <0.05 at 0.1 mg/kg",현저하게 감소되었다
same,number and area % of hippocampal ThioflavinS-positive plaques,"hAPP Tg mice; p<0.05 at 10 mg/kg, p<0.01 at 0.1 mg/kg",음성적인 투여량 의존적 감소를 유도함
same,lowest tested concentration preventing VZV replication,[3],0.25 µM
same,intercontraction interval (ICI) and bladder capacity (BC) vs basal,[4],현저하게 증가시켰다
same,threshold pressure (ThP) vs basal,[4],현저한 감소
same,inhibition of JNK activity compared with L-JNKI,[5],보다 효과적으로 JNK 활성을 억제한다
same,tolerance (body weight),[6]; 1 mg/kg/inj i.v.,내약성이 우수함
same,T/C,[6]; 1 mg/kg/inj i.v. [Q4Dx4]x2,120%
